US6057359A, “Spontaneously dispersible concentrates comprising esters of baccatin-III compounds having antitumor and antiviral activity” (Marigen S.A., priority 1997, dated 2000)

How the values were obtained:
[1] = system: Py6 cells (Virus transformed 3T3 mouse-fibroblasts); experiment: Test of cell toxicity / cytotoxicity of MARIGENOL concentrates on Py6 cells (plaque assay, serial dilution); format: cell-based; conditions: for in dilution active up to 1: (microemulsion ME 1:100): dilution of ME 1:100, given in Mio.
Experimental: A biological assay system using microtiter plates and serial dilutions has been developed. Batches of 10^4 tumour cells per ml were set up in culture medium RPMI 1640 and inactivated with 10% of fetal calf serum (GIBCO); they are spread at a density low enough to enable them to grow during the assay, in non-confluent monolayers. Samples are added after 6 to 24 hours, with 100 μl per row, to which 100 μl of medium are added in the first well. Half of this mixture is withdrawn, transferred into the next well and again treated with 100 μl of medium, etc.
[…] They are then stained and fixed using 0.1% crystal violet (Fluka, Buchs) in a solution of 70% of methanol, 1% of formaldehyde and 29% of water. The samples are evaluated under the microscope, magnification 300×. The greatest cytotoxic dilution is determined. The samples can also be evaluated quantitatively by means of scanning and absorption measurement in a spectrophotometer.
N.B.: On the subject of the eternalized Py6-cells cf.: "Biochemistry", Coordinating Editor Geoffrey L. Zubay, Addison-Wesley Publishing Company, 1983, p.1079.

[2] = system: LEUKEMIA K 562; experiment: Vitality/proliferation test (Tritium), leukemia K 562; format: cell-based, human; conditions: controls 50'037 cpm
Source text: (§1) 4.0 Comparative assays with human tumor cell lines
(§2) VITALITY TEST/1%-MARIGENOL-CONCENTRATE
(§3) 1 × 10^4 cells per well
(§4) Proliferation test (Tritium: 1 μCi/well H^+)

[3] = system: LEUKEMIA DAUDI-LINE; experiment: Vitality/proliferation test (Tritium), leukemia Daudi-line; format: cell-based, human; conditions: controls 23'090 cpm
Source text: as §1, §2, §3, §4

[4] = system: Herpes-Virus (Herpes Simplex, HSV); experiment: Antiviral/virucidal efficacy against HSV, plaque reduction in VERO cells; format: cell-based; conditions: compared to simple medium, 2880 min
Experimental: (§5) The antiviral/virucidal efficacy against HSV of an aqueous microemulsion prepared with appropriate MARIGENOL®-concentrates was assessed on a confluent monolayer culture of VERO cells (i.e. "African green monkey kidney cells"). The host cells were pretreated during 3 h at 4° C. with an inventive microemulsion or with culture medium alone and then infected with HSV at a constant dose of 10^4 plaque forming units (PFU). After virus absorption during 1 h, and subsequent addition of 2% methylcellulose in order to limit virus spreading, cells were cultured in MEM medium+2% foetal calf serum for 48 h, then fixed and stained with 1% crystal violet in methanol. The reduction of viral titre was expressed as percent reduction of plaques of lysis observed in pre-treated cells, compared to controls.
Infection was also detected by IFA at 24 h after inoculation, using a Mab specific for a glycoprotein common to HSV-1/HSV-2 (clone FQ 12, Argene Biosoft, BIOLINE, Torino).
The following test substances were assessed as concentrates in aqueous dilution (starting with a microemulsion 1:100): […]

[5] = system: VERO cells; experiment: Cell lysis in VERO cell layers; format: cell-based, African green monkey; conditions: dilution 1:1'000; plaque reduction table
Experimental: as §5

[6] = system: HIV isolates from patients (strains 21/4 and 4/5); experiment: Effect on HIV infectivity, residual HIV titre (direct antiviral efficacy); format: cell-based
Experimental: Aliquote amounts of two HIV isolates from patients (strains 21/4 and 4/5) resuspended in complete RPMI medium at a titre of 300 CCID50 /ml were incubated during 3 hours, +4° C. with MARIGENOL®-concentrate, in the form of an aqueous microemulsion, at concentrations ranging from 10^-2 to 10^-5 in complete medium, as well as with ("empty") carrier concentrate and with medium alone as controls.
After pre-incubation, residual HIV titre was assessed by the CCID50 method (Cell-culture infecting dose 50%). Briefly, serial twofold dilutions were prepared from each of the six virus suspensions, and 200 μl of each dilution were incubated for 90 minutes with MT-4 cell pellets prepared as stated before (see 7.1). At the end of incubation, pellets were brought to initial cell concentration by adding appropriate amounts of complete RPMI medium to each tube, whose content was then distributed into 8 wells of a flat-bottom microtitre plate in 200 μl volumes, each vertical row coresponding to a dilution. After 5 days of incubation, cell viability was assessed by the MTT test as stated above, and the HIV titre was expressed as the reciprocal of that dilution which infects 4 out of 8 wells (50%) in a row. A well was considered infected when its O.D. readout at 550 nm was lower than the average readout of 8 control wells minus 2.8 times the standard error of the mean (lower 95% confidence limit).

7-Baccatin III-all trans-retinoate
in dilution active up to 1: (calculated on active substance content, A.S.) ([1]; 24 h exposure): 12.8 Mio. | in dilution active up to 1: (calculated on active substance content, A.S.) ([1]; 48 h exposure): 25.6 Mio. | in dilution active up to 1: (calculated on active substance content, A.S.) ([1]; 72 h exposure): 25.6 Mio. | Proliferation test % ([2]; 10^-3): 0.8% | Proliferation test cpm ([2]; 10^-3): 415 cpm | Proliferation test % ([2]; 10^-4): 1.6% | Proliferation test cpm ([2]; 10^-4): 822 cpm | Proliferation test % ([2]; 10^-5): 15.0% | Proliferation test % ([3]; 10^-3): 1.1% | Proliferation test cpm ([3]; 10^-3): 256 cpm | Proliferation test % ([3]; 10^-4): 1.7% | Proliferation test cpm ([3]; 10^-4): 412 cpm | Proliferation test % ([3]; 10^-5): 52.7%

CCCCCCCCCCCC(=O)O[C@H]1C[C@@]2(O)[C@@H](OC(=O)c3ccccc3)[C@@H]3[C@]4(OC(C)=O)CO[C@@H]4C[C@H](OC(=O)CCCCCCCCCCC)[C@@]3(C)C(=O)[C@H](OC(C)=O)C(=C1C)C2(C)C [BACCATIN III-DI-LAURATE, 7,13-Dilauroylbaccatin-III]
in dilution active up to 1: (calculated on active substance content, A.S.) ([1]; 24 h exposure): 12.8 Mio. | in dilution active up to 1: (calculated on active substance content, A.S.) ([1]; 48 h exposure): 12.8 Mio. | in dilution active up to 1: (calculated on active substance content, A.S.) ([1]; 72 h exposure): 25.6 Mio. | Proliferation test % ([2]; 10^-3): 1.1% | Proliferation test cpm ([2]; 10^-3): 585 cpm | Proliferation test % ([2]; 10^-4): 1.3% | Proliferation test cpm ([2]; 10^-4): 651 cpm | Proliferation test % ([2]; 10^-5): 6.1% | Proliferation test % ([3]; 10^-3): 1.4% | Proliferation test cpm ([3]; 10^-3): 346 cpm | Proliferation test % ([3]; 10^-4): 1.9% | Proliferation test cpm ([3]; 10^-4): 455 cpm | Proliferation test % ([3]; 10^-5): 38.3%

C=CCCCCCCCCC(=O)O[C@H]1C[C@@]2(O)[C@@H](OC(=O)c3ccccc3)[C@@H]3[C@]4(OC(C)=O)CO[C@@H]4C[C@H](OC(=O)CCCCCCCCC=C)[C@@]3(C)C(=O)[C@H](OC(C)=O)C(=C1C)C2(C)C [BACCATIN III-DI-UNDECENOATE, 7,13-Baccatin-III-diundecenoate]
in dilution active up to 1: (calculated on active substance content, A.S.) ([1]; 24 h exposure): 12.8 Mio. | in dilution active up to 1: (calculated on active substance content, A.S.) ([1]; 48 h exposure): 25.6 Mio. | in dilution active up to 1: (calculated on active substance content, A.S.) ([1]; 72 h exposure): 100 Mio. | in dilution active up to 1: (microemulsion ME 1:100) ([1]; 72 h exposure): 1 Mio. | Proliferation test % ([2]; 10^-3): 0.9% | Proliferation test cpm ([2]; 10^-3): 466 cpm | Proliferation test % ([2]; 10^-4): 1.3% | Proliferation test cpm ([2]; 10^-4): 665 cpm | Proliferation test % ([2]; 10^-5): 9.5% | Proliferation test % ([3]; 10^-3): 1.2% | Proliferation test cpm ([3]; 10^-3): 293 cpm | Proliferation test % ([3]; 10^-4): 2.8% | Proliferation test cpm ([3]; 10^-4): 653 cpm | Proliferation test % ([3]; 10^-5): 41.7%

CCCCCCCCCCCC(=O)O[C@H]1CC[C@@]2(C)C(=CC=C3[C@@H]4CC[C@H]([C@H](C)/C=C/[C@H](C)C(C)C)[C@@]4(C)CC[C@@H]32)C1 [C12:0 -ERGO ESTER (ERGOST. LAURATE), (3β, 22E)-Ergosta-5,7,22-triene-3-ol-laurate]
Percent reduction of plaques in VERO cell monolayers ([4]; dilution 1:10'000): 62% | Percent reduction of plaques in VERO cell monolayers ([4]; dilution 1:100'000): 0% | Cell-Lysis [5]: Cell-Lysis

CCCCCCCCCCCC(=O)Oc1cc(OC(=O)CCCCCCCCCCC)c2c(=O)cc(-c3ccccc3)oc2c1 [CHRYSIN-DI-LAURATE]
in dilution active up to 1: (calculated on active substance content, A.S.) ([1]; 24 h exposure): 12.8 Mio. | in dilution active up to 1: (calculated on active substance content, A.S.) ([1]; 48 h exposure): 51.2 Mio. | in dilution active up to 1: (calculated on active substance content, A.S.) ([1]; 72 h exposure): 100 Mio. | in dilution active up to 1: (microemulsion ME 1:100) ([1]; 72 h exposure): 1 Mio.

CCCCCCCCCCCCCCCC(=O)Oc1cc(OC(=O)CCCCCCCCCCCCCCC)c2c(=O)cc(-c3ccccc3)oc2c1 [CHRYSIN-DI-PALMITATE]
in dilution active up to 1: (calculated on active substance content, A.S.) ([1]; 24 h exposure): 12.8 Mio. | in dilution active up to 1: (calculated on active substance content, A.S.) ([1]; 48 h exposure): 51.2 Mio. | in dilution active up to 1: (calculated on active substance content, A.S.) ([1]; 72 h exposure): 51.2 Mio.

C=CCCCCCCCCC(=O)O[C@H]1CC[C@@]2(C)C(=CC=C3[C@@H]4CC[C@H]([C@H](C)/C=C/[C@H](C)C(C)C)[C@@]4(C)CC[C@@H]32)C1 [ERGOSTERYL-10-UNDECENOATE, (3β, 22E)-Ergosta-5,7,22-triene-3-ol-10-undecenoate]
RESIDUAL HIV TITRE (CCID50) ([6]; concentrate 1'000 ppm, active substance 10 ppm, mean titre of 2 strains, 3 h, +4° C.): 25 CCID50 | inhibition of HIV infectivity ([6]; pre-treatment with 1%-concentrate): somewhat less potent inhibition

CCCCCCCCCCCCCCCC(=O)Oc1ccc(-c2oc3cc(OC(=O)CCCCCCCCCCCCCCC)cc(OC(=O)CCCCCCCCCCCCCCC)c3c(=O)c2OC(=O)CCCCCCCCCCCCCCC)c(OC(=O)CCCCCCCCCCCCCCC)c1 [MOREN-PENTA-PALMITATE]
in dilution active up to 1: (calculated on active substance content, A.S.) ([1]; 24 h exposure): 6.4 Mio. | in dilution active up to 1: (calculated on active substance content, A.S.) ([1]; 48 h exposure): 51.2 Mio. | in dilution active up to 1: (calculated on active substance content, A.S.) ([1]; 72 h exposure): 51.2 Mio.

CCCCCCCCCCCC(=O)Oc1ccc(-c2oc3cc(OC(=O)CCCCCCCCCCC)cc(OC(=O)CCCCCCCCCCC)c3c(=O)c2OC(=O)CCCCCCCCCCC)c(OC(=O)CCCCCCCCCCC)c1 [MORIN-PENTA-LAURATE]
in dilution active up to 1: (calculated on active substance content, A.S.) ([1]; 24 h exposure): 12.8 Mio. | in dilution active up to 1: (calculated on active substance content, A.S.) ([1]; 48 h exposure): 100 Mio. | in dilution active up to 1: (microemulsion ME 1:100) ([1]; 48 h exposure): 1 Mio. | in dilution active up to 1: (calculated on active substance content, A.S.) ([1]; 72 h exposure): 100 Mio. | in dilution active up to 1: (microemulsion ME 1:100) ([1]; 72 h exposure): 1 Mio.

CC(=O)O[C@H]1C(=O)[C@@]2(C)[C@H]([C@H](OC(=O)c3ccccc3)[C@]3(O)C[C@H](OC(=O)[C@H](O)[C@@H](NC(=O)c4ccccc4)c4ccccc4)C(C)=C1C3(C)C)[C@]1(OC(C)=O)CO[C@@H]1C[C@@H]2O [TAXOL-A.S., Taxol (Paclitaxel), reference compound]
in dilution active up to 1: (calculated on active substance content, A.S.) ([1]; 24 h exposure): 6.4 Mio. | in dilution active up to 1: (calculated on active substance content, A.S.) ([1]; 48 h exposure): 25.6 Mio. | in dilution active up to 1: (calculated on active substance content, A.S.) ([1]; 72 h exposure): 25.6 Mio. | Proliferation test % ([2]; 10^-3): 1.3% | Proliferation test cpm ([2]; 10^-3): 679 cpm | Proliferation test % ([2]; 10^-4): 1.6% | Proliferation test cpm ([2]; 10^-4): 830 cpm | Proliferation test % ([2]; 10^-5): 7.1% | Proliferation test % ([3]; 10^-3): 2.3% | Proliferation test cpm ([3]; 10^-3): 552 cpm | Proliferation test % ([3]; 10^-4): 2.9% | Proliferation test cpm ([3]; 10^-4): 672 cpm | Proliferation test % ([3]; 10^-5): 69.6%

CCCCCCCCCCCCCCCCCCCC(=O)O[C@H]1CC[C@@]2(C)C(=CC[C@H]3[C@@H]4CC[C@H]([C@H](C)CC[C@@H](CC)C(C)C)[C@@]4(C)CC[C@@H]32)C1 [β-Sitosteryl-Arachidate, 3β-Stigmast-5-en-3-arachidate]
Percent reduction of plaques in VERO cell monolayers ([4]; dilution 1:10'000): 76% | Percent reduction of plaques in VERO cell monolayers ([4]; dilution 1:100'000): 5% | Cell-Lysis [5]: Cell-Lysis
